Assay: In vivo oral insulin delivery; blood glucose level
Parameters: species or system Balb/C mice
Details: mice, single oral dose, 1 to 3.5 hours
Method: Balb/C mice of female sex were fasted for 12 hours before experiment. Each mouse wag savaged 200 μL of each preparation as described in Table 9.3. Food was restored immediately after administration. Blood samples for glucose determination was drawn from mouse tail vein under methoxyflurane anesthesia. Samples were drawn right before the administration (0 hour), as well as at 1, 2, 3 and 3.5 hours post administration of each preparation. Blood glucose level was measured using a One Touch® Profile Diabetes Tracking system (Lifescan, Milpitas, Calif.) with One Touch® Test strips, by applying blood to form a round drop which completely covered the test spot on the test strip. Readings (in mg/dL) were obtained from the meter indicating the blood glucose level detected.
Blood glucose level at zero hour was taken at 100 percent. Blood glucose levels after the oral administration were normalized by the level at zero hour, and the results were plotted in FIG. 9. […] This was due to the degradation of the unprotected peptide in the gastrointestinal tract by the digestive enzymes. […] This is consistent with the fact that unpolymerized liposomes are not stable in the gastrointestinal tract, where they are dissolved by the biological detergents. The dissolution results in the exposure of liposomal contents and therefore the loss of liposome protective functions. […]

## insulin in solution: human insulin (regular) administered orally in solution
  change in blood glucose level after oral administration: did not result in any significant change

Source: US6387397B1, “Polymerized liposomes targeted to M cells and useful for oral or mucosal drug delivery” (Massachusetts Institute of Technology, priority 1997, dated 2002)
